# Results taken from patent US9283219B2, “Sublingual films” (Cynapsus Therapeutics, Inc., priority 2010, dated 2016).
# Where a name gives a salt, the structure may show the parent alone.
# Tests used:
# [1] = cited from earlier work
# [2] = Permeability studies, Franz diffusion cells; format: in vitro ADME; details: pig
# Procedure: Freshly collected buccal tissues were obtained from pig and mucosa's were isolated carefully. The prepared mucosa membranes with approximate size of 4 cm^2 were mounted between donor and receiver chambers of Franz diffusion cells with available diffusion area of 1.77 cm^2. Test treatments and controls were run in quadruplicate. The receiver compartment, which contained a stirring bar, was filled with 8 mL of KRB buffer, pH 7.4 containing 1% BSA. The Franz cells were placed in a heating/stirring block. The temperature was set at 37° C. in order to maintain the tissue surface temperature at 32° C.; the stirring rate was set at 400 rpm. Two milliliters of formulated compound at different pHs was added to the donor chambers, completely covering the exposed mucosa. All dosing solutions contained 0.1% of sodium dithionite, 0.2% DMSO and 5% propylene glycol or glycerin. The donor compartment was covered with Parafilm to minimize evaporation. An aliquot (˜0.5 mL) was taken from the receiver compartment at 2, 60, 90, and 120 min and replaced with an equal volume of buffer warmed at 37° C. Sampling time points from donor compartment were 0, 60, 90 and 120 min. Samples were diluted with 0.5 mL (1:1) of 10% aq. ascorbic acid. The concentration of each analyte was quantified by LC-MS/MS (Appendix I). The whole study was done in dark with yellow light, and glass vials and syringes were used for sampling. […] Cd final is the concentration of the donor at the end of the incubation period (interval), μM.
# [3] = subcutaneous injection, 0.5 mg/kg, literature value; cited from earlier work
"Papp at 120 min ([2]; pH 6.4, pH 6.4) [×10⁻⁶ cm/s]","Papp at 120 min ([2]; pH 6.8, pH 6.8) [×10⁻⁶ cm/s]","Papp at 120 min ([2]; pH 7.4, pH 7.4) [×10⁻⁶ cm/s]","Papp at 120 min ([2]; pH 8, pH 8.0) [×10⁻⁶ cm/s]","Papp at 120 min ([2]; pH 8, pH 8.0 + 1% glycerin monostearate) [×10⁻⁶ cm/s]","Papp at 120 min ([2]; pH 8, pH 8.0 + 1% magnesium stearate) [×10⁻⁶ cm/s]","Papp at 120 min ([2]; pH 8, pH 8.0 + 1% tocopherol acetate) [×10⁻⁶ cm/s]",Structure (SMILES),adverse effects of intranasal administration ([1]; intranasal administration),side effect of subcutaneous injection ([1]; subcutaneous injection),"adverse effects of sublingual tablets ([1]; sublingual administration of tablets, prolonged use)",AUCinf [3] [ng·min/mL],Cmax [3] [ng/mL],Tmax [3] [min]
0.071,0.054,0.185,0.556,2.34,0.3,0.98,CN1CCc2cccc3c2[C@H]1Cc1ccc(O)c(O)c1-3 [apomorphine],"transient nasal blockage, burning sensation and swollen nose and lips","development of nodules, which often become infected",severe stomatitis on prolonged use with buccal mucosal ulceration in half the patients,,,
,,,,,,,"CN1CCc2cccc3c2[C@H]1Cc1ccc(O)c(O)c1-3 [sc inj, apomorphine hydrochloride]",,,,17828,331,25
